The source of these data is paper PMC11388068, “Amide naphthotube as a novel supramolecular sequestration agent for tetracaine and decamethonium” (Theranostics, 2024).

Several values for one entry are separate records, joined by “and”; a condition that tells them apart may be missing. Identical values can stand only once. Like-named read-outs stand apart in the source and are kept apart here.

One series relates to Human myocytes AC16 cell. Nature of the series: CCK-8 cytotoxicity assay in AC16 cells. It is filed as cell-based. The following applies: 24 h, 24 h incubation, mixtures in a 1:1 ratio. On the procedure:
Cells experiments: AC16 cells were cultured in DMEM/F12 with 10% FBS, 1% penicillin, and 1% streptomycin at 37 °C with 5% CO2, and passaged every 2 days. They were seeded into 96-well plates at a density of 5-8×10^3 cells per well and cultured overnight. Then, different concentrations of TC, 1a, 1b, TC@1a and TC@1b mixture solution at various concentrations (25, 50, […], […], 200, 400, 800, and 1600 μM) were added to replace the culture medium for 24 h at 37 °C. After incubation, Cell Counting Kit-8 solution (10 μL per well) was added, and cells were incubated for 4 h at 37 °C. The optical density values at 450 nm were measured using a microplate reader to assess cell viability as a percentage of control cells. Finally, IC50 values were calculated using GraphPad Prism 8.0.2 software.
The assay and cell viability were calculated as in the cell experiment above.

A short description of series [1]: Lethal TC poisoning mouse model (Dixon's up-and-down, probit). It is filed as in vivo, female Balb/c mice. Conditions: female, Balb/c, mouse, in vivo, iv, TC i.v., mice, probit analysis. The method, then: (§1) Lethal TC poisoning mouse model: the lethal dose of i.v. administered TC was calculated in mice (8-10 week old female Balb/c mice, weighing 20-25 g) using Dixon's up-and-down method. The initial dose of TC given to the first mouse was 9.0 mg/kg, and the standard dose ratio of TC given to the adjacent mouse was 0.9. If the animal survives, the subsequent animal receives a higher dose. If the animal dies, the following animal receives a lower dose. This process was repeated until at least seven crossover points were achieved. Probit analysis was employed to determine the LD50 (50% lethal dose) and LD95 (95% lethal dose) of TC, along with their corresponding CI (confidence intervals). Sequence diagrams and dose-response curves were generated using GraphPad Prism 9 software.

Series [2] has as its system Balb/c mice. Described as above. It is filed as in vivo, female Balb/c mice. The following applies: TC i.v., probit analysis. The method, then: as §1
The subject of series [3] is AC16 cells. Nature of the series: Plasma membrane potential, DiBAC4(3) flow cytometry. It is filed as cell-based, Human. The following applies: AC16 cells exposed to TC for 10 minutes. On the procedure:
Determination of the plasma membrane potential: AC16 cells were seeded into 12-well plates and cultured until reaching 80-90% confluence. Following removal of the culture medium, cells were exposed to HBSS (Hank's Balanced Salt Solution) containing […] TC for 10 minutes at 37 °C. Subsequently, cells were collected and incubated with 200 nM Bis-(1,3-Dibutylbarbituric Acid)-Trimethine Oxanol (DiBAC4(3), Solarbio) for 20 minutes at 37 °C. The fluorescence intensity of cells was then assessed using flow cytometry. To determine the impact of 1b (ammonium salt) on plasma membrane potential, 25×10^4 AC16 cells were co-incubated with 400 µM TC and varying concentrations of 1b (0, 400, 800, and 2000 µM) or exclusively with 1b (2000 µM) in HBSS for 10 minutes at 37 °C. Plasma membrane potential was subsequently evaluated using the aforementioned methodology.

In series [4] the test system is AC16 cells. Nature of the series: Intracellular sodium levels. The series is classed as cell-based, Human. The following applies: TC 400 µM, 10 minutes. The method, then: Determination of intracellular sodium levels: 3×10^5 AC16 cells were seeded in 6-well plates with 2 mL of medium. After 12 hours, the cell medium was replaced with 400 µM TC and varying concentrations of compound 1b (ammonium salt, 0, 400, 800, and 2000 µM) or 2000 µM 1b in HBSS for 10 minutes at 37 °C. Control cells were treated with 2 mL HBSS for 10 minutes at 37 °C. After washing with PBS, cells were lysed in 300 µL of 1% Triton X-100 in saline with a 1% proteinase inhibitor cocktail from Meilunbio. The lysates were centrifuged at 12,000 ×g for 15 minutes, and the supernatant was collected for sodium level determination (7600 Modular-Hitachi-Chemistry Analyzer) and total protein content BCA assays (Epizyme Biotech). The sodium-to-protein ratio was calculated, presenting results as relative intracellular sodium content compared to the control group.

Series [5] is described as follows: Lethal C10 poisoning mouse model (Dixon's up-and-down, probit). It is filed as in vivo. The following applies: Balb/c, mouse, in vivo, iv; C10 i.v., mice, probit analysis. The method, then: (§2) Lethal C10 poisoning mouse model: the lethal dose of i.v. administered C10 was calculated using Dixon's up-and-down method similar to TC. The initial dose of C10 was 0.9 mg/kg. Subsequent doses for each mouse were adjusted by ±0.1 mg/kg based on the outcome of the preceding animal.

A further series concerns mice. The description is as above. Conditions: C10 i.v., probit analysis. It is filed as in vivo. The method, then:
as §2

Series [6] has as its system Balb/c mice. Nature of the series: C10-induced paralysis dose in a mouse model (Rotarod). It is filed as in vivo, Female Balb/c mice. Conditions: C10 i.v., probit analysis. On the procedure:
Determination of C10-induced paralysis dose in a mouse model: The movement behavior was conducted with the Rotarod rotor (ZB-200). Female Balb/c mice (8-9 weeks old) weighing 18-22 g were placed on the Rotarod rotor and trained three times for 30 minutes, three times a day for three consecutive days. On day 4, Dixon's up-and-down method was employed to explore the effective dose: The initial dose of C10 to the first mouse was 0.6 mg/kg, and the standard dose ratio of C10 given to the adjacent mouse was 0.8. […] Conversely, in the case of a negative response, the following mouse received an increased dose. Tests were conducted sequentially, with changes in mobility response transitioning between positive and negative until at least 7 crossover points were reached. Probit analysis was employed to determine the ED50 (50% effective dose) and ED95 (95% effective dose) of C10, along with their corresponding CI (confidence intervals). Sequence diagrams and dose-response curves were generated using GraphPad Prism 9 software.

The test system of another series is C10-induced paralysis. Nature of the series: Mobility recovery assessment in a mouse model (Rotarod). The following applies: mice given C10 0.53 mg/kg, no 1b. It is filed as in vivo, Female Balb/c mice. The method, then:
Mobility recovery assessment in a mouse model: the trained mice for 4 days were i.v. administered with either 4 mg/kg or 6 mg/kg of 1b, or saline, 30 seconds after administering 0.53 mg/kg C10. The mice were then placed on the rotor, and the time taken to move on the rotor for 30 seconds successfully was recorded.

Series [7] in a line: Plasma pharmacokinetics of C10, saline- and 1b-treated groups. Conditions: for AUC(0-inf) / AUC(0-t) / Cmax / MRT last / MRT inf / half-life / Vd: plasma; for MRT last: read-out: MRT0-t; for MRT inf: read-out: MRT0-∞; for half-life: read-out: T1/2z (converted); for Vd: read-out: Vz. It is filed as in vivo, Male Kunming mice. On the procedure: Male Kunming mice (30 ± 2 g) were used in the pharmacokinetic study. Drugs were injected through the tail vein of mice. Blood, liver, and kidney tissues were collected at certain intervals after administration with 6 mice at each time point. Blood samples were placed in heparin sodium tubes and centrifuged at 6000 rpm for 20 minutes at 4^ oC to obtain plasma samples. Plasma, liver and kidney tissues were stored in a freezer at -80 °C and frozen until analysis was performed. The drug concentrations were determined by Liquid chromatography-mass spectrometry (Waters ACQUITY UPLC/Xevo TQ-S). The Masslynx 4.1 software was used to obtain the peak area of the tested compounds and internal standards in each plasma sample and calculate the standard curve formula. […] The detailed pharmacokinetics experiment procedure including materials and reagents, sample preparation, establishment and validation of analytical strategy, and LC-MS conditions are described in the Supporting Information.
1.3. A dministration and collection of plasma samples
Male Kunming mice (30±2g) were randomly divided into 5 groups, namely 1b group (dose 80mg/kg, concentration 20mg/ml), C10 group (dose 0.45mg/kg, concentration 0.125mg/ml, C10 injection for 30s followed by the same volume of normal saline), 1b combined with C10 group (C10 dose 0.45 mg/kg, C10 concentration 0.125mg/ml, C10 injection for 30s followed by 1b 6 mg/kg, 1b concentration 1.5 mg/ml). Drugs were injected through the tail vein of mice. In group 1b , eyeball blood and liver and […]
after administration, with 6 mice in each time point. In the other four groups, blood and liver and kidney tissues were collected from eyeballs at 3min, 5min, 10min, 15min, 30min, 45min and 1h after administration. Six mice were selected at each time point. Blood samples were placed in heparin sodium tubes and centrifuged at 6000rpm for 20 minutes at 4℃ to obtain plasma samples. They were stored in a refrigerator at - 80 ° C and frozen until analysis. Plasma, liver and kidney tissues were stored in a freezer at - 80 ℃ and then frozen until analysis was performed.
1.4. Preparation of Calibration Standards and Quality Control (QC) Samples 1b, C10, and IS were dissolved separately in methanol to get a stock solution concentration of 1.0 mg/mL. The stock solution of the drug to be tested was then diluted with methanol to prepare the working solution. Calibration standards and QC samples were prepared by diluting the working solution with methanol. The final concentrations of C10 were 25, 250 and 1000 ng/mL, 1b final concentration of 150, 1500 and 6000 ng/mL.The final concentration of IS is 10 ng/mL.
1.5.Mouse plasma sample preparation
The plasma to be tested was thawed at room temperature, and 100 μL of mouse plasma samples were collected in 1.5 mL EP tubes. 10 μL of IS solution (10 ng/mL) and 10 μL of methanol were mixed followed by the addition of 400 μL […] (1:1 v / v), and then the tubes were vortex mixed for 3.0 min.
After centrifugation at 13,000 rpm for 20 min at 4 °C, the supernatant was transferred to a nitrogen blower, and the solvent was dried by maintaining a steady flow of nitrogen. After drying the solvent, reconstituted with 100 μL 20% aqueous methanol

The mark [8] stands for this setting: male, Kunming, mouse, iv, 0.45 mg/kg, C10 in plasma, Saline-treated Group.
Setting [9] is: male, Kunming, mouse, iv, 0.45 mg/kg, C10 in plasma, 1b-treated Group.

Take `CCCCNc1ccc(C(=O)OCCN(C)C)cc1` [TC, Tetracaine]: the IC50 with Human myocytes AC16 cell worked out at 384 µM. Also, the LD50 in [1] is 6.92 mg/kg. Also, in the series with Balb/c mice [2], the LD50 amounted to 6.9 mg/kg; the LD95 is 8.749 mg/kg and 8.7 mg/kg. In the series on AC16 cells [3], the “mean fluorescence intensity (plasma membrane potential)” value is recorded as “significant rise in mean fluorescence intensity”. Also, the intracellular sodium loss entry in the series with AC16 cells [4] is recorded as “approximately 20%”.

For `C[N+](C)(C)CCCCCCCCCC[N+](C)(C)C` [C10, Decamethonium], the LD50 in [5] worked out at 0.69 mg/kg. In addition, in the series with mice, the LD95 was 0.86 mg/kg. The “ED95 for inducing muscle paralysis” value in the series on Balb/c mice [6] came out at 0.53 mg/kg. Moreover, the ED50 with Balb/c mice [6] (Mus musculus, iv, read-out: ED50 for inducing muscle paralysis) was found to be 0.37 mg/kg. In addition, the average recovery time entry in the series with C10-induced paralysis is “approximately 402.8 seconds”. The same molecule had a CL in series [7] (C10 in plasma, 1b-treated Group) of 1.12 ± 0.22 mL/h/g. Further, the CL in [7] (C10 in plasma, Saline-treated Group) was determined as 1.54 ± 0.16 mL/h/g. In series [7] (setting [8]), the Tmax worked out at 3 min, the AUC(0-t) is 284 ± 26.4 ng·h/mL, the Cmax was 1310 ± 179 ng/mL and the MRT last came to 6.6 ± 1.2 min. Besides, in series [7] (setting [8]), the MRT inf was 9.6 ± 2.4 min, the half-life was 21.6 ± 9.6 min and the Vd stood at 0.8 ± 0.33 L/kg. Besides, the AUC(0-inf) in series [7] (male, Kunming, mouse, iv, 0.45 mg/kg, C10, 1b-treated Group, read-out: area under the plasma concentration-time curve (AUC0-∞)) was determined as 414 ± 80.9 ng·h/mL. The AUC(0-inf) in series [7] (male, Kunming, mouse, iv, 0.45 mg/kg, C10, saline-treated Group, read-out: area under the plasma concentration-time curve (AUC0-∞)) was determined as 294 ± 28 ng·h/mL. In series [7] (setting [9]), the AUC(0-t) turned out to be 406 ± 77.2 ng·h/mL, the highest level (Cmax) was 1630 ± 345 ng/mL, the MRT last was found to be 9 ± 1.2 min and the MRT inf turned out to be 10.2 ± 1.8 min. For the same molecule, in series [7] (setting [9]), the half-life was 11.4 ± 1.2 min and the Vd was 0.3 ± 0.06 L/kg. Further, the AUC(0-inf) in series [7] (male, Kunming, mouse, iv, 0.45 mg/kg, C10 in plasma, 1b-treated Group, read-out: AUC0-∞) was determined as 414 ± 80.9 ng·h/mL. Further, in series [7] (male, Kunming, mouse, iv, 0.45 mg/kg, C10 in plasma, Saline-treated Group, read-out: AUC0-∞), the AUC(0-inf) came to 294 ± 28 ng·h/mL.
